The values below come from patent publication US10925867B2, “Immunotherapeutic dosing regimens comprising pomalidomide and an anti-CS1 antibody for treating cancer” (Bristol-Myers Squibb Company, priority 2015, dated 2021).

Marks after values point to notes of the source that are not given here.

The conditions of data set [1]: 10 and 20 mg/kg in combination with lenalidomide; cited from earlier work.
A short description of data set [2]: Infusion reactions in Study CA204009. It is filed as in vivo, human. From the text: Elotuzumab can cause infusion reactions. Infusion reactions were reported in approximately 10% of patients treated with elotuzumab, lenalidomide and dexamethasone in Study CA204004 and in 7% of patients treated with elotuzumab, bortezomib and dexamethasone in Study CA204009. All reports of infusion reaction were ≤Grade 3. Grade 3 infusion reactions occurred in 1% of patients in Study CA204004 and in no patients in Study CA204009. The most common symptoms of an infusion reaction included fever, chills and hypertension. In Study CA204004, 5% of patients required interruption of the administration of elotuzumab due to infusion reaction for a median of 25 minutes and 1% of patients discontinued due to infusion reactions. In Study CA204009, 20% of patients required interruption of the administration of elotuzumab for a median of 40 minutes and none discontinued due to infusion reactions. Of the patients who experienced an infusion reaction, 70% (23/33) in Study CA204004 and 80% (4/5) in Study CA204009 had them during the first dose.
The maximum infusion rate of 2 ml/min was initially explored in the phase 1 and 2 elotuzumab clinical trials. However, the phase 2 portion of the CA204003 (1703) and the CA204009 studies allowed an infusion rate escalation in subjects without infusion reactions for a minimum of 4 cycles of study therapy at 2 ml/min. The infusion rates are allowed to increase by 1 ml/min per cycle, up to 5 ml/min.
Preliminary safety data of the 5 ml/minute infusion rate are based on an analysis of subjects who escalated the elotuzumab infusion to 5 ml/minute in the CA204003 (1703) and CA204009 studies. In the phase 2 portion of the CA204003 (1703) study, 33% of all study infusions and 42.5% of subjects received infusions at 5 ml/min. In subjects who were administered infusions ≤2 ml/min, there were 7 grade 1-2 infusion reactions, and 1 grade 3-4 infusion reaction. […] In the randomized phase 2 CA204009 study, 27% of all subjects and 9% of all infusions on the investigational arm received infusions at 5 ml/min.

For data set [3], the system named is multiple myeloma. The settings on record: Ph II, patients administered pomalidomide; cited from earlier work.
The subject of data set [4] is OPM2 xenograft. In words: Efficacy dose titration of pomalidomide in OPM2 xenograft. It is filed as in vivo. Particulars: for LCK (Log cell kill) / Median Days to Target Size / TGI (Tumor growth inhibition) / Weight Change % / CR (Complete regression) / PR (Partial regression): d14, 21; for CR (Complete regression) / PR (Partial regression): mice of 8; for effect on tumor growth (in words): pomalidomide 0.5, 5 and 50 mg/kg orally. The method, then:
FIG. 1. Antitumor Activity of pomalidomide treatment on OPM2 Multiple Myeloma Xenograft. Pomalidomide was administered at either 0.5 mg/kg, 5 mg/kg, or 50 mg/kg. […] Group one was left untreated (control, circles), group two treated with pomalidomide (50 mg/kg, triangles), group three treated with pomalidomide (5 mg/kg, squares), group four treated with pomalidomide (0.5 mg/kg, diamonds). All treatment sets were dosed daily for 5 days orally starting on d14 and then again for 5 days on d21. The data are presented as means+/−standard deviation. From this experiment the suboptimal 5 mg/kg dose was chosen as the dose to use in combination studies with elotuzumab and/or dexamethasone. […]
To assess the effect of pomalidomide treatment on the growth of the OPM2 xenograft, scid mice with established tumors were treated orally with pomalidomide at doses of 0.5 mg/kg, 5 mg/kg and 50 mg/kg. […] From this experiment the suboptimal 5 mg/kg dose was chosen as the dose to use in the combination studies (Study #1, OPM2-15 and Study #2, OPM2-16).

Where [5] appears, read: pomalidomide 0.5 mg/kg PO QD × 5.
The mark [6] stands for this setting: pomalidomide 50 mg/kg PO QD × 5.

“Elotuzumab: humanized monoclonal IgG1 antibody directed against CS-1; VL SEQ ID NO:1, VH SEQ ID NO:2”: the “steady-state Cmin” value in data set [1] is recorded as “above 70 μg/mL”. Further, in data set [2], the “median duration of interruption” value turned out to be 40 min, the “patients discontinued due to infusion reactions” value is “none”, the “patients requiring interruption of administration” value is recorded as 20% and the “patients with Grade 3 infusion reactions” value is given as “no patients”. Moreover, the “patients with infusion reaction who had it during the first dose” value in data set [2] turned out to be 80%. Further, the infusion reactions entry in data set [2] (subjects reaching infusion rates >2 ml/min) is “no infusion reactions of any grade”. The “patients with infusion reactions” value in data set [2] (with bortezomib and dexamethasone) is 7%.
On to `Nc1cccc2c1C(=O)N(C1CCC(=O)NC1=O)C2=O` (racemic) [Pomalidomide, (RS)-4-amino-2-(2,6-dioxo-piperidin-3-yl)-isoindole-1,3-dione], for which, in data set [3], the “median progression free survival” value is recorded as 11.6 months, the overall response rate is recorded as 63% and the “patients achieving VGPR or CR” value is listed as 33%. For the same compound, in data set [4] (setting [5]), the “LCK (Log cell kill)” value is 0.19^g, the “Median Days to Target Size” value is 25 days, the “TGI (Tumor growth inhibition)” value is recorded as 45% and the “Weight Change %” value turned out to be 9.3%. Also, in data set [4] (setting [5]), the “CR (Complete regression)” value is on record as 0/8 and the “PR (Partial regression)” value is listed as 0/8. In addition, in data set [4] (pomalidomide 5 mg/kg PO QD × 5), the “LCK (Log cell kill)” value is on record as 0.59^f, the “Median Days to Target Size” value is 29 days, the “TGI (Tumor growth inhibition)” value is on record as 63.1% and the “Weight Change %” value is 3.2%. In data set [4] (pomalidomide 5 mg/kg PO QD × 5), the “CR (Complete regression)” value is on record as 0/8 and the “PR (Partial regression)” value is reported as 0/8. In addition, in data set [4] (setting [6]), the “LCK (Log cell kill)” value is on record as 1.0^e, the “Median Days to Target Size” value came out at 33 days, the “TGI (Tumor growth inhibition)” value was determined as 87.1% and the “Weight Change %” value stood at 4.7%. Moreover, in data set [4] (setting [6]), the “CR (Complete regression)” value is reported as 0/8 and the “PR (Partial regression)” value is 1/8. Moreover, in data set [4], the “effect on tumor growth (in words)” value is “suppressed tumor growth in a dose-dependent fashion”. Further, in data set [4] (listed as pomalidomide), the “effect on tumor growth (in words)” value is recorded as “inhibited tumor growth in a dose-dependent fashion”.
